Reference: BigSolDB 2.1
Values joined by “and” are separate entries in the source; they are usually repeats but may differ in a detail not shown here. Equal values may be shown once.

C[C@@H](O[C@H]1OCCN(Cc2n[nH]c(=O)[nH]2)[C@H]1c1ccc(F)cc1)c1cc(C(F)(F)F)cc(C(F)(F)F)c1
Conditions	solubility (mole fraction)
in acetone, 284.75 K	0.00512
in acetone, 289.85 K	0.00582
in acetone, 291.45 K	0.00601
in acetone, 295.95 K	0.00663
in acetone, 299.85 K	0.00719
in acetone, 301.45 K	0.00741
in acetone, 303.75 K	0.00778
in acetone, 305.65 K	0.00808
in acetone, 307.55 K	0.0084
in acetone, 313.85 K	0.00955
in acetone, 317.75 K	0.0104
in acetone, 324.65 K	0.0118
in acetonitrile, 285.55 K	0.000172
in acetonitrile, 289.55 K	0.000196
in acetonitrile, 293.45 K	0.000235
in acetonitrile, 295.95 K	0.000262
in acetonitrile, 302.85 K	0.000344
in acetonitrile, 304.35 K	0.000368
in acetonitrile, 306.55 K	0.000398
in acetonitrile, 309.55 K	0.000444
in acetonitrile, 312.35 K	0.000509
in acetonitrile, 318.85 K	0.00063
in acetonitrile, 320.85 K	0.00067
in acetonitrile, 327.95 K	0.000853
in ethanol, 283.55 K	0.00166
in ethanol, 290.85 K	0.00209
in ethanol, 293.55 K	0.00223
in ethanol, 295.95 K	0.0024
in ethanol, 298.35 K	0.00251
in ethanol, 301.55 K	0.00279
in ethanol, 303.85 K	0.00294
in ethanol, 306.25 K	0.00316
in ethanol, 308.25 K	0.00333
in ethanol, 315.25 K	0.00396
in ethanol, 318.45 K	0.00432
in ethanol, 324.85 K	0.00505
in methanol, 284.45 K	0.00314
in methanol, 288.75 K	0.00343
in methanol, 292.15 K	0.00374
in methanol, 296.35 K	0.00405
in methanol, 298.45 K	0.00422
in methanol, 300.75 K	0.00445 and 0.00463
in methanol, 302.65 K	0.00495
in methanol, 306.65 K	0.00513
in methanol, 308.45 K	0.00568
in methanol, 313.65 K	0.00619
in methanol, 318.25 K	0.00676
in n-butanol, 285.45 K	0.00115
in n-butanol, 288.85 K	0.00131
in n-butanol, 293.25 K	0.00154
in n-butanol, 295.45 K	0.00164
in n-butanol, 298.15 K	0.00177
in n-butanol, 301.75 K	0.002
in n-butanol, 303.75 K	0.00219
in n-butanol, 306.35 K	0.00235
in n-butanol, 308.85 K	0.00258
in n-butanol, 313.45 K	0.00292
in n-butanol, 317.45 K	0.00335
in n-butanol, 322.25 K	0.00392
in n-propanol, 283.75 K	0.00127
in n-propanol, 290.75 K	0.00162
in n-propanol, 294.75 K	0.00187
in n-propanol, 296.95 K	0.00198
in n-propanol, 298.55 K	0.00207
in n-propanol, 300.15 K	0.00215
in n-propanol, 303.05 K	0.00241
in n-propanol, 306.25 K	0.00262
in n-propanol, 308.75 K	0.00285
in n-propanol, 314.35 K	0.00331
in n-propanol, 318.35 K	0.0037
in n-propanol, 325.35 K	0.00463
